The target in series [1] is Excitatory amino acid transporter 2 (Rattus norvegicus) (UniProt P31596). The series can be described thus: Attenuation of the sodium-dependent uptake of [3H]D-aspartate into synaptosomes prepared from rat forebrain at 250 uM. The class given is subcellular. The settings on record: Brain.
Series [2] has the same target. As to the kind of experiment: Tested for the ability to attenuate the sodium-dependent uptake of [3H]D-aspartate (5 uM) into synaptosomes prepared from rat forebrain at 25 uM. Format: subcellular. The settings on record: Brain.
For the next series, the species on record is Rattus norvegicus. The series can be described thus: Tested for the competitive inhibitory activity against D-aspartate transport in rat synaptosomes. Format: functional, Brain.
A short description of series [3]: The compound was tested for binding affinity towards Excitatory amino acid receptors of rat brain synaptosomes; IE means ineffective. The class given is subcellular.
Compound in series [4]: O=C(O)[C@@H]1CN[C@@H](C(=O)O)C1
The series can be described thus: Tested for the competitive inhibitory activity against L-glutamate transport in rat synaptosomes. The class given is subcellular. The settings on record: Brain.

`C=C(C)[C@H]1CN[C@H](C(=O)O)[C@H]1CC(=O)O`: the Control in series [1] was 39%.

Molecule `CCOCC1[C@H](C(=O)O)CN[C@H]1C(=O)O` (stereo partly drawn) displayed a Control in series [1] of 55%.

Molecule `N[C@@H](CCC(=O)O)C(=O)O` showed a Control in series [2] of 40%.

Molecule `O=C(O)CC1[C@H](C(=O)O)CN[C@H]1C(=O)O` (stereo partly drawn) had a Control in series [1] of 95%.

Turning to `O=C(O)C[C@@H]1CN[C@H](C(=O)O)C1`, in series [1], the Control is 74%.

In series [1], `O=C(O)C[C@H]1CCN[C@@H]1C(=O)O` showed a Control of 74%.

Turning to `CC(C)[C@H]1CN[C@H](C(=O)O)[C@H]1CC(=O)O` (single isomer, unassigned), the Control in series [1] was 25%; in series [2] it was 83%.

For the molecule `O=C(O)[C@@H]1CN[C@@H](C(=O)O)C1` (stereo in doubt; form 1) [listing 1 of 2 here], the values for the Ki (in the series filed under Rattus norvegicus; in series [3]) were 1300 nM and “Ineffective”, respectively.

For the molecule `O=C(O)[C@@H]1CCN[C@H]1C(=O)O` (stereo in doubt; form 1), in series [1], the Control is 81%.

`O=C(O)[C@@H]1CN[C@@H](C(=O)O)C1` (stereo in doubt; form 1) [listing 2 of 2 here]: the Control in series [1] worked out at 0%; in series [2], 18%.

`O=C(O)[C@@H]1CN[C@H](C(=O)O)C1` (stereo in doubt; form 1) yielded a Control in series [1] of 105%.

For the molecule `O=C(O)[C@@H]1CN[C@H]1C(=O)O` (stereo in doubt; form 1), the Control in series [1] came to 109%.

Consider `O=C(O)[C@H]1NCC[C@H]1C(=O)O` (stereo in doubt; form 1), for which the Control is 38% in series [1] and 94% in series [2].

For `O=C(O)[C@H]1NC[C@H]1C(=O)O` (stereo in doubt; form 1), the Control in series [1] came out at 53%; in series [2], 96%.

As for `O=C(O)[C@@H]1CCN[C@H]1C(=O)O` (stereo in doubt; form 2), the Control in series [1] stood at 107%.

As for `O=C(O)[C@@H]1CN[C@@H](C(=O)O)C1` (stereo in doubt; form 2), the results for the Control in series [1] and in series [2] were 54% and 88%, respectively.

Take `O=C(O)[C@@H]1CN[C@H](C(=O)O)C1` (stereo in doubt; form 2): the Control in series [1] worked out at 36%; in series [2], 82%.

As for `O=C(O)[C@@H]1CN[C@H]1C(=O)O` (stereo in doubt; form 2), the Control in series [1] is 100%.

The molecule `O=C(O)[C@H]1NCC[C@H]1C(=O)O` (stereo in doubt; form 2) returned a Control in series [1] of 108%.

In series [1], `O=C(O)[C@H]1NC[C@H]1C(=O)O` (stereo in doubt; form 2) registered a Control of 98%.

B1: Excitatory amino acid transporter 2 (Rattus norvegicus), P31596 (protein)
chain: MASTEGANNMPKQVEVRMHDSHLSSEEPKHRNLGMRMCDKLGKNLLLSLTVFGVILGAVCGGLLRLAAPIHPDVVMLIAFPGDILMRMLKMLILPLIISSLITGLSGLDAKASGRLGTRAMVYYMSTTIIAAVLGVILVLAIHPGNPKLKKQLGPGKKNDEVSSLDAFLDLIRNLFPENLVQACFQQIQTVTKKVLVAPPSEEANTTKAVISLLNETMNEAPEETKIVIKKGLEFKDGMNVLGLIGFFIAFGIAMGKMGEQAKLMVEFFNILNEIVMKLVIMIMWYSPLGIACLICGKIIAIKDLEVVARQLGMYMITVIVGLIIHGGIFLPLIYFVVTRKNPFSFFAGIFQAWITALGTASSAGTLPVTFRCLEDNLGIDKRVTRFVLPVGATINMDGTALYEAVAAIFIAQMNGVILDGGQIVTVSLTATLASIGAASIPSAGLVTMLLILTAVGLPTEDISLLVAVDWLLDRMRTSVNVVGDSFGAGIVYHLSKSELDTIDSQHRMHEDIEMTKTQSVYDDTKNHRESNSNQCVYAAHNSVVIDECKVTLAANGKSADCSVEEEPWKREK
Take B1: in series [4], the Km (usually the concentration of substrate that gives half-maximal velocity) worked out at 3 µM.

For the origin of these results see ChEMBL document CHEMBL1149969, “Conformationally restricted inhibitors of the high affinity -glutamate transporter” (Bioorg Med Chem Lett, 1993).
